Measured values from ChEMBL document CHEMBL5512603, “Development of de-novo coronavirus 3-chymotrypsin-like protease (3CLpro) inhibitors since COVID-19 outbreak: A strategy to tackle challenges of persistent virus infection” (Eur J Med Chem, 2024).

How the values were obtained:
[1] = molecular target: T1, Replicase polyprotein 1ab (Severe acute respiratory syndrome coronavirus 2, UniProt P0DTD1); assay: Inhibition of recombinant SARS-CoV2 6xHis-tag-Main protease containing modified HRV-3C expressed in Escherichia coli using Mca-AVLQSGFR-K(Dnp)K peptide substrate assessed as fluorescent intensity
[2] = Half life in rat; type: ADME; details: in vivo
SARS-CoV-2 [3] = assay: Anti-viral activity against SARS-CoV-2 infected in K18-hACE2 mouse assessed as reduction in virus in lung at 100 mg/kg, ip twice daily measured after day 3; type: functional; details: Severe acute respiratory syndrome coronavirus 2, 72 h, time 3 day
SARS-CoV-2 [4] = assay: Antiviral activity against SARS-CoV-2 infected in African green monkey Vero cells; type: functional, organism-based; details: Severe acute respiratory syndrome coronavirus 2, Vero
SARS-CoV-2 [5] = assay: Antiviral activity against SARS-CoV-2 Canada/Vido 01/2020 infected in African green monkey Vero E6 cells assessed as inhibition of viral replication incubated for 48 hrs by plaque reduction assay; type: functional, organism-based; details: Severe acute respiratory syndrome coronavirus 2, Canada/Vido 01/2020, Vero C1008, 48 h
[6] = molecular target: T1, Replicase polyprotein 1ab; assay: Inhibition of recombinant SARS-CoV-2 3CLp using fluorogenic substrate by microplate reader
[7] = Oral bioavailability in Sprague-Dawley rat at 10 mg/kg; type: ADME, organism-based; details: in vivo
SARS-CoV-2 [8] = assay: Antiviral activity against SARS-CoV-2; type: functional, organism-based; details: Severe acute respiratory syndrome coronavirus 2
[9] = molecular target: T1, Replicase polyprotein 1ab; assay: Inhibition of SARS-CoV-2 recombinant 3CLpro using fluorogenic substrate (Dabcyl-KTSAVLQ]SGFRK M-E
[10] = molecular target: Protein cereblon/Replicase polyprotein 1ab (Severe acute respiratory syndrome coronavirus 2, UniProt P0DTD1+Q96SW2); assay: PROTAC activity at SARS-CoV-2 Main protease/CRBN (unknown origin) in SARS-CoV-2 infected african green monkey Vero cell assessed as inhibition of virus-mediated cytopathic effect measured after 72 hrs; type: cell-based
Protein cereblon/Replicase polyprotein 1ab, sequence (Q96SW2 whole entry, other chains not shown): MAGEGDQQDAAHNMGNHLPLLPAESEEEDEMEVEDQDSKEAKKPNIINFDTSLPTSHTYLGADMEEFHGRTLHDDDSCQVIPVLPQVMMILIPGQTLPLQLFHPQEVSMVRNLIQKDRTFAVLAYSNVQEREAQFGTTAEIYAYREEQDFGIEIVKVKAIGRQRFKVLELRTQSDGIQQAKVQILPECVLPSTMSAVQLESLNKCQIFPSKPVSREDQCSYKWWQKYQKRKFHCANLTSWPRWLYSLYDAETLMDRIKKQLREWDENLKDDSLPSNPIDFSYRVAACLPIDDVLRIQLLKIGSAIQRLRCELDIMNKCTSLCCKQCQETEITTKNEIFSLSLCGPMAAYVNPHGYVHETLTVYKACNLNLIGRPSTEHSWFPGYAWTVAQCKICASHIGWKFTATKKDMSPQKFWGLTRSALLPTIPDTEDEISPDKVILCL

SARS-CoV-2 [11] = assay: Antiviral activity against wild type SARS-CoV-2 infected in human Calu-3 cells; type: functional, organism-based; details: Severe acute respiratory syndrome coronavirus 2, Calu-3
[12] = molecular target: von Hippel-Lindau disease tumor suppressor-SARS-Cov-2 polyprotein (Severe acute respiratory syndrome coronavirus 2, UniProt P0DTD1+P40337); assay: PROTAC activity at SARS-CoV-2 Main protease/VHL (unknown origin) in SARS-CoV-2 infected african green monkey Vero cell assessed as inhibition of virus-mediated cytopathic effect measured after 72 hrs; type: cell-based
von Hippel-Lindau disease tumor suppressor-SARS-Cov-2 polyprotein, sequence (P40337 whole entry, other chains not shown): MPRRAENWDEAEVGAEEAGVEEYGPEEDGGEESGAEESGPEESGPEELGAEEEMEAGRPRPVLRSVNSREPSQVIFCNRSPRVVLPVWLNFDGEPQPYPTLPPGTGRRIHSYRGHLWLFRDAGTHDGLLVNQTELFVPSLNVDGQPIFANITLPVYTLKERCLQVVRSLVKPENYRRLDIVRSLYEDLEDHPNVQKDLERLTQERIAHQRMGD

[13] = Oral bioavailability in Sprague-Dawley rat at 20 mg/kg; type: ADME, organism-based; details: in vivo
SARS-CoV-2 [14] = assay: Antiviral activity against SARS-CoV-2 infected in African green monkey Vero E6 cells at 0.1 MOI assessed as inhibition of virus induced cytopathic effect by CCK8 assay; type: functional, organism-based; details: Severe acute respiratory syndrome coronavirus 2, Vero C1008
SARS-CoV-2 [15] = assay: Antiviral activity against SARS-CoV-2 infected in HAPEpIC cells at 0.01 MOI assessed as reduction in viral RNA copies by RT-qPCR analysis; type: functional, organism-based; details: Severe acute respiratory syndrome coronavirus 2
[16] = Bioavailability in Sprague-Dawley rat at 20 mg/kg, ip; type: ADME, organism-based; details: in vivo
SARS-CoV-2 [17] = assay: Antiviral activity against SARS-CoV-2 infected in African green monkey Vero E6 cells assessed as inhibition of virus induced cytopathic effect by CellTiter-Glo luminescent cell viability assay; type: functional, organism-based; details: Severe acute respiratory syndrome coronavirus 2, Vero C1008
[18] = molecular target: T1, Replicase polyprotein 1ab; assay: Inhibition of SARS-CoV-2 3CLp using fluorescent substrate by FRET assay
[19] = molecular target: T1, Replicase polyprotein 1ab; assay: Inhibition of 2019-nCoV-2 3CLp using fluorescent substrate by FRET assay
[20] = Cytotoxicity against African green monkey Vero E6 cells; type: toxicity, cell-based, Vero C1008; details: chlorocebus sabaeus

COC(=O)Cn1sc2ccccc2c1=O
IC50 [1]: 2.83 µM

O=C[C@H](C[C@@H]1CCNC1=O)NC(=O)[C@H](CC1CCCCC1)NC(=O)c1cc2ccccc2[nH]1
half-life [2]: > 4 h
inhibition in vivo at 100 mg/kg (SARS-CoV-2 [3]): 100%

C[C@H](NC(=O)[C@@H](c1cccnc1)N(C(=O)C(Cl)Cl)c1ccc(-c2ccccc2)cc1)c1ccccc1
EC50 (SARS-CoV-2 [4]): 0.9 µM

COc1cccc2[nH]c(C(=O)N[C@@H](CC(C)C)C(=O)N[C@H](C#N)C[C@@H]3CCNC3=O)cc12
EC50 (SARS-CoV-2 [5]): > 5 µM

O=C[C@H](C[C@@H]1CCNC1=O)NC(=O)[C@@H]1[C@H]2CCC[C@H]2CN1C(=O)COc1ccc(Cl)c(Cl)c1
IC50 [6]: 0.019 µM
bioavailability [7]: 5.1%

O=C[C@H](C[C@@H]1CCNC1=O)NC(=O)[C@@H]1[C@H]2CCC[C@H]2CN1C(=O)COc1ccc(Cl)cc1
IC50 [6]: 0.009 µM
bioavailability [7]: 7.2%

CC1(C)[C@@H]2[C@@H](C(=O)N[C@H](C=O)C[C@@H]3CCNC3=O)N(C(=O)COc3ccc(Cl)cc3)C[C@@H]21
IC50 [6]: 0.009 µM
bioavailability [7]: 4.8%

COc1cc(O)c2c(c1)O[C@H](c1cc(O)c(O)c(O)c1)[C@@H](O)C2=O
EC50 (SARS-CoV-2 [8]): 11.5 µM

CC1(C)[C@@H]2[C@@H](C(=O)N[C@H](C=O)C[C@@H]3CCNC3=O)N(C(=O)COc3ccc(Cl)cc3Cl)C[C@@H]21
IC50 [6]: 0.01 µM
bioavailability [7]: 4.1%

COc1cc(O)c2c(=O)c(O)c(-c3cc(O)c(O)c(O)c3)oc2c1
EC50 (SARS-CoV-2 [8]): 12.6 µM

C[C@H](NC(=O)[C@@H](c1cccnc1)N(C(=O)C(Br)(Br)Br)c1ccc(-c2ccccc2)cc1)c1ccccc1
EC50 (SARS-CoV-2 [4]): 0.58 µM

CNC(=O)c1cc(Br)cc([N+](=O)[O-])c1N[C@H]1CCCC[C@H]1NC(=O)c1cncc2cc(O)ccc12
IC50 [9]: 120 µM

O=c1c(O)c(-c2cc(O)c(O)c(O)c2)oc2cc(OP(=O)(Oc3ccccc3)Oc3ccccc3)cc(O)c12
EC50 (SARS-CoV-2 [8]): 3.15 µM

Cc1c(COC(=O)N[C@@H](CC(C)C)C(=O)N[C@@H](C[C@@H]2CCNC2=O)C(O)S(=O)(=O)O)nnn1CCOCCOCCOCCC(=O)Nc1cccc2c1C(=O)N(C1CCC(=O)NC1=O)C2=O (some centres not stated)
EC50 [10]: 2.15 µM

COc1ccc(/C=C(\C#N)C(=O)N(c2ccc(-c3ccccc3)cc2)[C@@H](C(=O)N[C@@H](C)c2ccccc2)c2cccnc2)cc1
EC50 (SARS-CoV-2 [11]): 6.47 µM

Cc1ncsc1-c1ccc(CNC(=O)[C@@H]2C[C@@H](O)CC2C(=O)[C@@H](NC(=O)CCC(=O)NCCOCCn2nnc(COC(=O)N[C@@H](CC(C)C)C(=O)N[C@@H](C[C@@H]3CCNC3=O)C(O)S(=O)(=O)O)c2C)C(C)(C)C)cc1 (some centres not stated)
EC50 [12]: 10.1 µM

Cc1ncsc1-c1ccc(CNC(=O)[C@@H]2C[C@@H](O)CN2C(=O)[C@@H](NC(=O)CCOCCOCCOCCn2nnc(COc3ccc(OC(=O)N[C@@H](CC(C)C)C(=O)N[C@@H](C[C@@H]4CCNC4=O)C(O)S(=O)(=O)O)cc3)c2C)C(C)(C)C)cc1 (some centres not stated)
EC50 [12]: 0.21 µM

CNC(=O)[C@@H](Cc1cccc(F)c1)NC(=O)C1CN(C(=O)c2cncc3cccc(O)c23)CCN1Cc1ccc(Cl)cc1Cl (some centres not stated)
IC50 [9]: 165 µM

CC1(C)[C@@H]2[C@H]1CN(C(=O)COc1ccc(OC(F)(F)F)cc1)[C@H]2C(=O)N[C@@H](C=O)C[C@H]1CCNC1=O
bioavailability [13]: 11.2%
EC50 (SARS-CoV-2 [14]): 0.86 µM
EC50 (SARS-CoV-2 [15]): 0.0012 µM
bioavailability [16]: 78%

CCC[C@H]1C(=O)N2C[C@]3(C[C@H]2C#N)C(=O)Nc2ccc(cc23)CCCCCN1C(=O)c1cc2c(F)cc(F)c(F)c2[nH]1
EC50 (SARS-CoV-2 [17]): < 0.1 µM
IC50 [18]: < 0.1 µM

CC(C)[C@H]1C(=O)N2C[C@]3(C[C@H]2C#N)C(=O)Nc2ccc(cc23)CCCCCN1C(=O)c1cc2c(F)cc(F)c(F)c2[nH]1
EC50 (SARS-CoV-2 [17]): < 0.1 µM
IC50 [18]: < 0.1 µM

CC(C)(C)NC(=O)[C@@H](c1cccnc1)N(C(=O)c1cnco1)c1ccc(-c2ccccc2)cc1
IC50 [19]: 4.97 µM
CC50 [20]: 67 µM

N#C[C@@H]1C[C@]23CN1C(=O)[C@H](c1ccccc1)N(C(=O)C1CN(c4ccc(F)cc4)N=N1)CCCCCc1ccc(c2c1)NC3=O (some centres not stated)
EC50 (SARS-CoV-2 [17]): > 1 µM
IC50 [18]: < 0.1 µM

C[C@H](NC(=O)[C@@H](c1cccnc1)N(C(=O)CC#N)c1ccc(-c2ccccc2)cc1)c1ccccc1
IC50 [18]: 0.5 µM
EC50 (SARS-CoV-2 [11]): 2.92 µM
